Conditions: Liquid, Vibrating tube method

C=CCCC [1-pentene]
Conditions	mass density [kg/m3]
283.48 K, 100 kPa	650.3
283.48 K, 500 kPa	650.8
283.48 K, 1000 kPa	651.6
283.48 K, 3000 kPa	654
283.48 K, 70000 kPa	708.8
283.48 K, 80000 kPa	714.8
283.49 K, 5000 kPa	656.3
283.49 K, 10000 kPa	661.8
283.49 K, 15000 kPa	666.9
283.49 K, 20000 kPa	671.7
283.49 K, 25000 kPa	676.2
283.49 K, 30000 kPa	680.4
283.49 K, 35000 kPa	684.5
283.49 K, 40000 kPa	688.4
283.49 K, 45000 kPa	692.1
283.49 K, 50000 kPa	695.7
283.49 K, 55000 kPa	699.1
283.49 K, 60000 kPa	702.5
283.49 K, 90000 kPa	720.4
283.49 K, 100000 kPa	725.7
293.42 K, 100 kPa	640.1
293.42 K, 500 kPa	640.7
293.42 K, 1000 kPa	641.4
293.42 K, 3000 kPa	644
293.42 K, 5000 kPa	646.5
293.42 K, 10000 kPa	652.4
293.42 K, 40000 kPa	680.8
293.42 K, 55000 kPa	692
293.42 K, 60000 kPa	695.5
293.42 K, 70000 kPa	702.2
293.42 K, 80000 kPa	708.3
293.42 K, 90000 kPa	714.1
293.42 K, 100000 kPa	719.6
293.43 K, 15000 kPa	657.9
293.43 K, 20000 kPa	663
293.43 K, 25000 kPa	667.8
293.43 K, 35000 kPa	676.7
293.43 K, 45000 kPa	684.7
293.43 K, 50000 kPa	688.4
293.44 K, 30000 kPa	672.3
303.33 K, 100 kPa	629.8
303.33 K, 1000 kPa	631.1
303.33 K, 3000 kPa	634
303.33 K, 35000 kPa	668.9
303.34 K, 5000 kPa	636.7
303.34 K, 10000 kPa	643.1
303.34 K, 15000 kPa	649
303.34 K, 20000 kPa	654.5
303.34 K, 25000 kPa	659.6
303.34 K, 30000 kPa	664.4
303.34 K, 40000 kPa	673.2
303.34 K, 45000 kPa	677.3
303.34 K, 50000 kPa	681.2
303.34 K, 80000 kPa	702
303.34 K, 90000 kPa	707.9
303.35 K, 55000 kPa	685
303.35 K, 60000 kPa	688.6
303.35 K, 70000 kPa	695.6
303.35 K, 100000 kPa	713.6
313.27 K, 500 kPa	620.4
313.27 K, 3000 kPa	624.5
313.27 K, 5000 kPa	627.5
313.27 K, 10000 kPa	634.4
313.28 K, 1000 kPa	621.3
313.28 K, 15000 kPa	640.8
313.28 K, 20000 kPa	646.7
313.28 K, 25000 kPa	652.1
313.28 K, 30000 kPa	657.2
313.28 K, 45000 kPa	670.8
313.28 K, 50000 kPa	674.9
313.28 K, 70000 kPa	689.9
313.29 K, 35000 kPa	661.9
313.29 K, 40000 kPa	666.6
313.29 K, 55000 kPa	678.8
313.29 K, 60000 kPa	682.6
313.29 K, 80000 kPa	696.4
313.29 K, 90000 kPa	702.6
313.29 K, 100000 kPa	708.4
323.18 K, 500 kPa	608.6
323.18 K, 1000 kPa	609.3
323.18 K, 3000 kPa	612.8
323.18 K, 5000 kPa	616.1
323.19 K, 10000 kPa	623.7
323.19 K, 15000 kPa	630.6
323.19 K, 20000 kPa	636.9
323.19 K, 25000 kPa	642.7
323.19 K, 30000 kPa	648.1
323.19 K, 35000 kPa	653.1
323.19 K, 40000 kPa	657.9
323.19 K, 45000 kPa	662.4
323.19 K, 50000 kPa	666.7
323.19 K, 55000 kPa	670.8
323.19 K, 60000 kPa	674.7
323.19 K, 70000 kPa	682.2
323.19 K, 80000 kPa	689.1
323.19 K, 90000 kPa	695.4
323.19 K, 100000 kPa	701.5
333.04 K, 500 kPa	597.2
333.04 K, 1000 kPa	598.1
333.04 K, 3000 kPa	601.9
333.04 K, 5000 kPa	605.6
333.04 K, 10000 kPa	613.9
333.05 K, 15000 kPa	621.4
333.05 K, 20000 kPa	628.1
333.05 K, 25000 kPa	634.3
333.05 K, 30000 kPa	640
333.05 K, 35000 kPa	645.3
333.05 K, 40000 kPa	650.4
333.05 K, 45000 kPa	655.1
333.05 K, 50000 kPa	659.6
333.05 K, 55000 kPa	663.9
333.05 K, 60000 kPa	668
333.05 K, 70000 kPa	675.8
333.05 K, 100000 kPa	695.8
333.06 K, 80000 kPa	683
333.06 K, 90000 kPa	689.6
342.94 K, 500 kPa	585.8
342.94 K, 1000 kPa	586.8
342.94 K, 90000 kPa	684
342.95 K, 3000 kPa	591.2
342.95 K, 5000 kPa	595.3
342.95 K, 10000 kPa	604.4
342.95 K, 70000 kPa	669.9
342.95 K, 80000 kPa	677.2
342.95 K, 100000 kPa	690.4
342.96 K, 15000 kPa	612.5
342.96 K, 20000 kPa	619.8
342.96 K, 25000 kPa	626.3
342.96 K, 30000 kPa	632.4
342.96 K, 35000 kPa	638.1
342.96 K, 40000 kPa	643.4
342.96 K, 45000 kPa	648.4
342.96 K, 50000 kPa	653
342.96 K, 55000 kPa	657.5
342.96 K, 60000 kPa	661.8
352.82 K, 500 kPa	574.2
352.82 K, 1000 kPa	575.6
352.82 K, 3000 kPa	580.5
352.82 K, 5000 kPa	585.1
352.82 K, 10000 kPa	595.2
352.83 K, 15000 kPa	603.9
352.83 K, 20000 kPa	611.7
352.83 K, 25000 kPa	618.7
352.83 K, 30000 kPa	625.2
352.83 K, 35000 kPa	631.2
352.83 K, 40000 kPa	636.7
352.83 K, 45000 kPa	641.9
352.83 K, 50000 kPa	646.9
352.83 K, 55000 kPa	651.5
352.83 K, 70000 kPa	664.3
352.83 K, 80000 kPa	671.9
352.83 K, 90000 kPa	679
352.83 K, 100000 kPa	685.6
352.84 K, 60000 kPa	655.9
362.67 K, 500 kPa	560.5
362.67 K, 1000 kPa	561.8
362.67 K, 3000 kPa	567.4
362.67 K, 80000 kPa	664.9
362.67 K, 100000 kPa	679
362.68 K, 5000 kPa	572.6
362.68 K, 10000 kPa	583.8
362.68 K, 15000 kPa	593.3
362.68 K, 20000 kPa	601.7
362.68 K, 25000 kPa	609.2
362.68 K, 30000 kPa	616.1
362.68 K, 35000 kPa	622.4
362.68 K, 40000 kPa	628.2
362.68 K, 45000 kPa	633.7
362.68 K, 50000 kPa	638.9
362.68 K, 55000 kPa	643.7
362.68 K, 60000 kPa	648.3
362.68 K, 70000 kPa	657.1
362.68 K, 90000 kPa	672.2

Reference: the NIST ThermoML archive (doi:10.1021/acs.jced.8b00229)
